Data taken from US12472193B2, “Methods and compositions for treating and preventing respiratory related diseases and conditions with xylitol-headgroup lipid analogs” (National Jewish Health, priority 2017, dated 2025).
“Also recorded” adds a separate entry of the source.

Molecular target: T1, TLR 3 (Homo sapiens, UniProt O15455)
T1 construct: endogenous in cells; host or cells: BEAS2B (ATCC)
T1 sequence (O15455 24-904): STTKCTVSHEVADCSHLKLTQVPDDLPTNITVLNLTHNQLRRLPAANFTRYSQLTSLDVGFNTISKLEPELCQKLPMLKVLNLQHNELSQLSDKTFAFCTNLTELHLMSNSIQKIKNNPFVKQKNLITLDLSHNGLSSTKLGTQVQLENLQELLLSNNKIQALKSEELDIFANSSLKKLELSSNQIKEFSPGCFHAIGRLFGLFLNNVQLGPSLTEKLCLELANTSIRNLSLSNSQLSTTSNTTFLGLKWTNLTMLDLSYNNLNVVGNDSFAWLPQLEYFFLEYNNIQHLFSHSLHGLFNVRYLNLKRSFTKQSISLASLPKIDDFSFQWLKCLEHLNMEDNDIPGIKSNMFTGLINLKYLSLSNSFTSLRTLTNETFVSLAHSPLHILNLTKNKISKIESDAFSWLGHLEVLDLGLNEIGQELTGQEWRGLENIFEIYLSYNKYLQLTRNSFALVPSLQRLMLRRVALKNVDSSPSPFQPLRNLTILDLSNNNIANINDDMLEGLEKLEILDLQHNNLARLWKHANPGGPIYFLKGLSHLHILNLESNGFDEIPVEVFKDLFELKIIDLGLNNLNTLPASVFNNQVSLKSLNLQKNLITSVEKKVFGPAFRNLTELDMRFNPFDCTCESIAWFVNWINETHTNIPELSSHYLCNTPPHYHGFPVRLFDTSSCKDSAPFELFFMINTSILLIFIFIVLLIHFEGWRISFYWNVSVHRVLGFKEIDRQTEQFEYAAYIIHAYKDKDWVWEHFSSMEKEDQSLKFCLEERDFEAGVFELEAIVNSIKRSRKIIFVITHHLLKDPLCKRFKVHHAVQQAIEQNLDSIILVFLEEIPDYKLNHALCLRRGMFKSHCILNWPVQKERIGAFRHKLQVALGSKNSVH
Assay: poly I:C-induced IL-8 release by BEAS2B cells (TLR 3 antagonism)
Type: cell-based
Conditions: for antagonism of TLR 3 activation (IL-8 release): poly I:C, 200 μg/ml lipid, 48 hours; for TLR3 antagonist activity: reduction in cytokine secretion vs activating TLR ligand alone; for IL-8 release from BEAS2B cells in the absence of poly I:C: lipid alone
Procedure: Human bronchial epithelial cells, BEAS2B, were obtained from ATCC and maintained in bronchial epithelial cell growth medium (BEGM), supplemented with the BulleKit from Lonza in accordance with protocol (M. H. Hudy, S. et al., “Cigarette smoke modulates rhinovirus-induced airway epithelial cell chemokine production.,” Eur. Respir. J., vol. 35, no. 6, pp. 1256-63, June 2010). Cells were cultured at 37 C with 5% carbon dioxide:95% air atmosphere maintained within the incubator. Experiments were conducted in 48-well plates and cells were seated at a density of 5×10^4 per well. After 24 hours, the BEGM medium was replaced with RPMI-1640 medium and incubated for an additional 24 hours. Liposomes were prepared as described above. Each condition for cell stimulation and antagonism was prepared in RPMI medium in a separate tube and consisted of: control (medium alone), TLR agonist, TLR agonist+lipid, and lipid alone. The cells were incubated in […] medium either with or without agonists and antagonists at 37° C. for 48 hours. Subsequently, media were collected, diluted and an enzyme-linked immunosorbent assay (ELISA) was performed to quantify IL-8 release by cells.
The ability of PX lipids to enter the endosomal compartment and modulate immune signaling was next assessed. The human bronchial epithelial cell line, BEAS2B, expresses TLR 3 in its endosomal compartments and is susceptible to infection by respiratory syncytial virus, making this cell line ideal cell line for this study. BEAS2B cells were stimulated with the TLR 3 agonist, poly I:C, in the presence or absence of phospholipid for 48 hours. After incubation, media was collected and IL-8 was quantified as a consequence of TLR 3 activation, and results are summarized in FIG. 5. […] Results from these experiments indicate that xylitol analogs were able to gain entry into BEAS2B cells and inhibit TLR 3 signaling. […] Thus, DMPX, 16:1 DPPX and 18:2 DLPX act as […]

SMILES | antagonism of TLR 3 activation (IL-8 release) | TLR3 antagonist activity | IL-8 release from BEAS2B cells in the absence of poly I:C
CCCCCCCC/C=C\CCCCCCCC(=O)O[C@H](COC(=O)CCCCCCCCCCCCCCC)COP(=O)([O-])OCC[N+](C)(C)C [POPC, 1-palmitoyl-2-oleoyl-sn-glycero-3-phosphocholine, reference compound] | unaffected | – | –
CCCCCCCC/C=C\CCCCCCCC(=O)O[C@H](COC(=O)CCCCCCCCCCCCCCC)COP(=O)(O)OCC(O)CO (some centres unmarked) [POPG, palmitoyl-oleoyl-phosphatidylglycerol, reference compound] | markedly inhibited | – | –
CCCCCCCCC=CCCCCCCCCOCC(COP(=O)(O)OCC(O)C(O)C(O)CO)OCCCCCCCCC=CCCCCCCCC (mixture of isomers) [18:1 DEPX, sn-1-O-octadecenyl, sn-2-O-octadecenyl sn-3 glycerol phosphoxylitol] | suppressed/inhibited activation of TLR3 | + (cutoff being greater than a 50% reduction in cytokine secretion compared to activating TLR ligand alone) | –
CCCCCCCCCCCCCCCC(=O)OCC(COP(=O)(O)OCC(O)C(O)C(O)CO)OC(=O)CCCCCCCCCCCCCCC (centres unmarked) [DPPX, sn-1-palmitoyl, sn-2-palmitoyl sn-3 glycerol phosphoxylitol] | suppressed/inhibited activation of TLR3 | + (cutoff being greater than a 50% reduction in cytokine secretion compared to activating TLR ligand alone) | –
CCCCCCCC/C=C\CCCCCCCC(=O)O[C@H](COC(=O)CCCCCCCCCCCCCCC)COP(=O)(O)OCC(O)C(O)C(O)CO (some centres unmarked) [POPX, sn-1-palmitoyl, sn-2-oleoyly sn-3 glycerol phosphoxylitol] | suppressed/inhibited activation of TLR3 | + (cutoff being greater than a 50% reduction in cytokine secretion compared to activating TLR ligand alone) | –
CCCCCCC=CCCCCCCCC(=O)OCC(COP(=O)(O)OCC(O)C(O)C(O)CO)OC(=O)CCCCCCCC=CCCCCCC (mixture of isomers) [16:1 DPPX, sn-1-palmitoleoyl, sn-2-palmitoleoyl sn-3 glycerol phosphoxylitol] | stimulated a robust release of IL-8; also recorded: ineffective antagonists of TLR 3 | – | stimulated a robust release of IL-8
CCCCCCCCC=CCCCCCCCC(=O)OCC(COP(=O)(O)OCC(O)C(O)C(O)CO)OC(=O)CCCCCCCC=CCCCCCCCC (mixture of isomers) [DOPX, sn-1-oleoyl, sn-2-oleoyl sn-3 glycerol phosphoxylitol] | suppressed/inhibited activation of TLR3 | + (cutoff being greater than a 50% reduction in cytokine secretion compared to activating TLR ligand alone) | –
CCCCCCCCCCCCCC(=O)OC[C@H](COP(=O)(O)OCC(O)C(O)C(O)CO)OC(=O)CCCCCCCCCCCCC (mixture of isomers) [DMPX, sn-1-myristoyl, sn-2-myristoyl sn-3 glycerol phosphoxylitol] | ineffective antagonists of TLR 3 | – | elicited an inflammatory response
CCCCCCCCCCCCCCOC[C@H](COP(=O)(O)OCC(O)C(O)C(O)CO)OCCCCCCCCCCCCCC (mixture of isomers) [14:0 DEPX, sn-1-O-myristyl, sn-2-O-myristyl sn-3 glycerol phosphoxylitol] | suppressed/inhibited activation of TLR3 | + (cutoff being greater than a 50% reduction in cytokine secretion compared to activating TLR ligand alone) | –
CCCCCCCCCCCCCCCCCC(=O)OCC(COP(=O)(O)OCC(O)C(O)C(O)CO)OC(=O)CCCCCCCCCCCCCCCCC (centres unmarked) [DSPX, sn-1-stearoyl, sn-2-stearoyl sn-3 glycerol phosphoxylitol] | suppressed/inhibited activation of TLR3 | + (cutoff being greater than a 50% reduction in cytokine secretion compared to activating TLR ligand alone) | –
CCCCCC=CCC=CCCCCCCCC(=O)OCC(COP(=O)(O)OCC(O)C(O)C(O)CO)OC(=O)CCCCCCCC=CCC=CCCCCC (mixture of isomers) [18:2 DLPX, sn-1-linoleoyl, sn-2-linoleoyl sn-3 glycerol phosphoxylitol] | ineffective antagonists of TLR 3 | – | elicited an inflammatory response
